# Measurements from patent US20240216401A1, “COMBINATION THERAPY BY USING AKR1C3-ACTIVATED COMPOUND WITH IMMUNE CHECKPOINT INHIBITOR” (OBI Pharma, Inc., priority 2021, published 2024).
# Tested on: HepG2 tumor
# Experiment: Example 2: tumor volume, tumor weight and TGI in HepG2 tumor bearing humanized mice
# Assay type: in vivo, Mus musculus
# Conditions: Example 2, D30
# Method: 1. Species: Mus musculus • Strain: Advanced immunodeficiency mouse. • (NOD.CgPrkdc^scid Il2rg) • Source: Trineo Biotechnology Co., LTD.
# Each group contains six mice. The human hepatocellular carcinoma cell line HepG2 were subcutaneously inoculated to the advanced immune-deficiency mice. Total of 42 mice were included in this study.
# 2.2. […] The subcutaneous injection volume was […].
# 3.1. […] The injection was performed using insulin syringe with the dosage of 0.3 mg/kg or 1 mg/kg and the injection volume was 5 mL/kg. […] The reference item was administered for G1. The procedure followed the standards of sample administration. The starting day of test item administration was denoted as the first experimental day (DO).
# 3.2. […] The injection was performed using insulin syringe with the dosage of 20 mg/kg and injection volume of 10 mL/kg. […] The procedure followed the standards of sample administration.
# The measurement was performed from the next day of the inoculation. The tumor volumes were measured and recorded twice a week (Mon., Thur.). Tumor volume was calculated by ellipsoid equation according to the records ((major axis×minor axis×minor axis)×(π/6)).
# Tumor volumes were used to calculate tumor growth inhibition (TGI) rates according to the following formula: TGI (%)=[1−(Ti−T0)/(Ci−C0)]×100, where Ti and Ci indicate the mean tumor volume in the treatment groups and vehicle group at the end of the experiment (Day 30). Whereas, T0 and C0 indicate the mean tumor volumes in the treatment group and vehicle group at the beginning of the experiment (Day 0).
# Mice were sacrificed by CO2 euthanasia at the end of the study duration, and the connective tissue around tumor was resected. The tumor samples were then weighed and cut equally into three sections if the tumor weight over 400 mg. The tumor tissue was prepared for the isolation of tumor-infiltrating lymphocytes (TILs). The rest of one section was fixed in 10% formaldehyde and embedded in paraffin; the other was stored at a temperature below −70° C.
substance,measurement,setting,value
"anti-hPD-1: Anti-Human PD-1 antibody, Pembrolizumab, Merck & Co., Inc.",mean tumor volume,"mean±SEM, anti-hPD-1 20 mg/kg IP alone (G4)",983.84±266.44 mm^3
same,mean tumor volume compared with vehicle (in words),"vs vehicle (G1), OBI-3424 high-dose 1 mg/kg (G3), anti-hPD-1 20 mg/kg (G4), combinations G5-G7",No statistically significant difference
